Marks after values point to notes of the source that are not given here.
Assays:
[1] = Stability of SDC-TRAP-0063 sodium with added excipients
[2] = pH-dependent lactone / open ring carboxylic acid equilibrium in solution; type: physicochemical
Description: In solution, SDC-TRAP-0063 contains a lactone ring at pH-dependent equilibrium with the corresponding open chain carboxylic acid form. At high pH (above pH of around 9) the equilibrium shifts toward an open ring carboxylic acid form and at low pH it shifts toward the closed ring lactone form.
During the manufacturing process, SDC-TRAP-0063 is converted to SDC-TRAP-0063 Sodium, which is the dominant form at pH above approximately 9.3. SDC-TRAP-0063 Sodium drug product is aseptically manufactured as a sterile-filtered solution that is lyophilized. […] There is minimal impact from annealing or secondary drying modifications on TBA level in SDC-TRAP-0063 Sodium drug product.

[3] = Residual moisture of lyophilized drug product; type: physicochemical; settings: 100 mg/mL, 30% TBA, 4% PEG 400; Standard cycle (Table 2)
[4] = Residual TBA in lyophilized drug product by gas chromatography (GC-HS); type: physicochemical; set-up: key to Residual TBA: TBA weight percentage in dry powder
Method: SDC-TRAP-0063 synthesized in Example 1 was dissolved in an alkaline co-solvent system comprising 30% (by volume) tert-butanol (TBA) and water to obtain a drug solution. Various polyols, such as PEG, glycerol and propylene glycol (PG), were added to the drug solution in vials prior to the standard lyophilization cycle (freezing→annealing→primary drying→secondary drying). Dry powder drug products comprising SDC-TRAP-0063 sodium were obtained. TBA weight percentages in the dry powders were measured by gas chromatography (GC-HS) (Table 1).

[5] = pH, testing of lyophilized drug product; type: physicochemical
[6] = Residual TBA in lyophilized drug product by gas chromatography (GC-HS); type: physicochemical; set-up: key: TBA weight percentage in dry powder; settings: 100 mg/mL
[7] = 100 mg/mL, 15% TBA, 3% PEG 400, NaOH 5.5 g/100 g (Table 3)
[8] = 100 mg/mL, 15% TBA, 6% Mannitol (Table 4)
[9] = 100 mg/mL, 30% TBA, 1% glycerol, standard lyophilization cycle (Table 1)
[10] = 100 mg/mL, 30% TBA, 2% PG, standard lyophilization cycle (Table 1)
[11] = 100 mg/mL, 30% TBA, 2% glycerol, standard lyophilization cycle (Table 1)
[12] = 100 mg/mL, 30% TBA, 3% PEG 400, NaOH 5.5 g/100 g (Table 3)
[13] = 100 mg/mL, 30% TBA, 3% PEG 400, standard lyophilization cycle (Table 1)
[14] = 100 mg/mL, 30% TBA, 3% glycerol, Standard cycle (Table 2)
[15] = 100 mg/mL, 30% TBA, 3.5% PEG 400, Standard cycle (Table 2)
[16] = 100 mg/mL, 30% TBA, 3.5% glycerol, Standard cycle (Table 2)
[17] = 100 mg/mL, 30% TBA, 4% PEG 400, BnOH 0.1 mg/vial, NaOH 5.5 g/100 g (Table 3)
[18] = 100 mg/mL, 30% TBA, 4% PEG 400, NaOH 5 g/100 g (Table 3)
[19] = 100 mg/mL, 30% TBA, 4% PEG 400, NaOH 5.5 g/100 g (Table 3)
[20] = 100 mg/mL, 30% TBA, 4% PEG 400, Standard cycle (Table 2)
[21] = 100 mg/mL, 30% TBA, 4% PEG 400, standard lyophilization cycle (Table 1)
[22] = 100 mg/mL, 30% TBA, 4% PEG 1000 (Table 4)
[23] = 100 mg/mL, 30% TBA, 4% PEG 2000 (Table 4)
[24] = 100 mg/mL, 30% TBA, 4% PEG 4000 (Table 4)
[25] = 100 mg/mL, 30% TBA, 4% PG, standard lyophilization cycle (Table 1)
[26] = 100 mg/mL, 30% TBA, 4% glycerol, Standard cycle (Table 2)
[27] = 100 mg/mL, 30% TBA, 4% glycerol, standard lyophilization cycle (Table 1)

CCc1c2c(nc3ccc(OC(=O)N4CCC(CCn5ccc6cc(-n7c(O)nnc7-c7cc(C(C)C)c(O)cc7O)ccc65)CC4)cc13)-c1cc([C@@](O)(CC)C(=O)[O-])c(CO)c(=O)n1C2.[Na+] [SDC-TRAP-0063 sodium, Sodium (S)-2-(2-((4-(2-(5-(3-(2,4-dihydroxy-5-isopropylphenyl)-5-hydroxy-4H-1,2,4-triazol-4-yl)-1H-indol-1-yl)ethyl)piperidine-1-carbonyl)oxy)-12-ethyl-8-(hydroxymethyl)-9-oxo-9,11-dihydroindolizino[1,2-b]quinolin-7-yl)-2-hydroxybutanoate]
Stability with PEG-400 addition ([1]; PEG-400 added as excipient): no impact on the stability
Stability with propylene glycol addition ([1]; propylene glycol added as excipient): faster decay
pH above which SDC-TRAP-0063 Sodium is the dominant form ([2]; manufacturing process): approximately 9.3

CCc1c2c(nc3ccc(OC(=O)N4CCC(CCn5ccc6cc(-n7c(O)nnc7-c7cc(C(C)C)c(O)cc7O)ccc65)CC4)cc13)-c1cc3c(c(=O)n1C2)COC(=O)[C@]3(O)CC [SDC-TRAP-0063, (S)-4,11-diethyl-4-hydroxy-3,14-dioxo-3,4,12,14-tetrahydro-1H-pyrano[3′,4′:6,7]indolizino[1,2-b]quinolin-9-yl 4-(2-(5-(3-(2,4-dihydroxy-5-isopropylphenyl)-5-hydroxy-4H-1,2,4-triazol-4-yl)-1H-indol-1-yl)ethyl)piperidine-1-carboxylate]
Residual Moisture [3]: 0.26%
Residual TBA [4, 7]: 3.3%
Residual TBA [4, 8]: 6.6%
Residual TBA ([4]; 100 mg/mL, 30% TBA, 0% PEG 400, 0% glycerol, Standard cycle, average (Table 2)): 7% avg
Residual TBA ([4]; 100 mg/mL, 30% TBA, 0% PEG 400, BnOH 0 mg/vial, NaOH 0 g/100 g, average (Table 3)): 7% avg
Residual TBA ([4]; 100 mg/mL, 30% TBA, 0% PEG 1000, 0% PEG 2000, 0% PEG 4000, 0% Mannitol, average (Table 4)): 7% avg
Residual TBA [4, 9]: 7.1%
Residual TBA [4, 10]: 4.1%
Residual TBA [4, 11]: 5.2%
Residual TBA [4, 12]: 4.1%
Residual TBA [4, 13]: 3.6%
Residual TBA [4, 14]: 3.8%
Residual TBA [4, 15]: 3.3%
Residual TBA [4, 16]: 3.3%
Residual TBA ([4]; 100 mg/mL, 30% TBA, 4% PEG 400, 5% Mannitol (Table 5)): 0.54
Residual TBA ([4]; 100 mg/mL, 30% TBA, 4% PEG 400, 7.5% Mannitol (Table 5)): 1.36
Residual TBA ([4]; 100 mg/mL, 30% TBA, 4% PEG 400, 10% Mannitol (Table 5)): 2.22
Residual TBA [4, 17]: 2.4%
Residual TBA [4, 18]: 1.9%
Residual TBA [4, 19]: 2.2%
Residual TBA [4, 20]: 2.7%
Residual TBA [4, 21]: 2.0%
Residual TBA [4, 22]: 2.3%
Residual TBA [4, 23]: 2.2%
Residual TBA [4, 24]: 2.3%
Residual TBA [4, 25]: 1.5%
Residual TBA [4, 26]: 1.8%
Residual TBA [4, 27]: 1.2%
Residual TBA ([4]; 100 mg/mL, 30% TBA, 5% PEG 400, 5% Mannitol (Table 5)): 0.11
Residual TBA ([4]; 100 mg/mL, 30% TBA, 5% PEG 400, 7.5% Mannitol (Table 5)): 0.26
Residual TBA ([4]; 100 mg/mL, 30% TBA, 5% PEG 400, 10% Mannitol (Table 5)): 0.74
Residual TBA ([4]; 100 mg/mL, 30% TBA, 6% PEG 400, 5% Mannitol (Table 5), below the limit of quantitation of the method): 0.05*
Residual TBA ([4]; 100 mg/mL, 30% TBA, 6% PEG 400, 7.5% Mannitol (Table 5), below the limit of quantitation of the method): 0.09*
Residual TBA ([4]; 100 mg/mL, 30% TBA, 6% PEG 400, 10% Mannitol (Table 5)): 0.16
Residual TBA with 4% PEG-400 ([4]; 4% of PEG-400): 2.5-2.7%
Residual TBA ([4]; pre-lyophilization solution 100 mg/mL, 30% TBA, 0% PEG 400, 0% glycerol, 0% PG, standard lyophilization cycle, average): 7% avg
Stability profile with 4% PEG-400 ([1]; 4% of PEG-400): stability profile is acceptable
Stability profile with glycerol as excipient ([1]; glycerol as excipient, compared with PEG-400): slightly worse stability profile
pH [5, 7]: 10.0
pH ([5]; 100 mg/mL, 15% TBA, 4% Mannitol (Table 4)): 9.8
pH [5, 8]: 9.8
pH ([5]; 100 mg/mL, 30% TBA, 0% PEG 400, 0% glycerol, Standard cycle (Table 2)): 10.1-10.3
pH ([5]; 100 mg/mL, 30% TBA, 0% PEG 400, BnOH 0 mg/vial, NaOH 0 g/100 g (Table 3)): 10.1-10.3
pH ([5]; 100 mg/mL, 30% TBA, 0% PEG 1000, 0% PEG 2000, 0% PEG 4000, 0% Mannitol (Table 4)): 10.1-10.3
pH [5, 9]: 10.2
pH [5, 10]: 10.2
pH [5, 11]: 10.2
pH [5, 12]: 9.9
pH [5, 13]: 10.1
pH ([5]; 100 mg/mL, 30% TBA, 3% glycerol, No secondary drying (Table 2)): 10.1
pH [5, 14]: 10.1
pH ([5]; 100 mg/mL, 30% TBA, 3.5% PEG 400, No secondary drying (Table 2)): 10.1
pH [5, 15]: 10.0
pH [5, 16]: 10.1
pH [5, 17]: 10.0
pH [5, 18]: 9.5
pH [5, 19]: 9.9
pH [5, 20]: 10.1
pH [5, 21]: 10.1
pH [5, 22]: 9.7
pH [5, 23]: 9.9
pH [5, 24]: 9.8
pH [5, 25]: 10.1
pH [5, 26]: 10.1
pH [5, 27]: 10.2
pH ([5]; pre-lyophilization solution 100 mg/mL, 30% TBA, 0% PEG 400, 0% glycerol, 0% PG, standard lyophilization cycle): 10.1-10.3
Solubility in water (Solubility in water): does not have good solubility in water
pH above which equilibrium shifts toward open ring carboxylic acid form [2]: around 9
Residual TBA ([6]; 15% TBA, 4% Mannitol (Table 4)): 6.0%
Residual TBA ([6]; 30% TBA, 3% glycerol, No secondary drying (Table 2)): 4.0%
Residual TBA ([6]; 30% TBA, 3.5% PEG 400, No secondary drying (Table 2)): 3.2%

From patent US20210169871A1, “PHARMACEUTICAL COMPOSITIONS WITH REDUCED TERT-BUTANOL LEVELS” (TARVEDA THERAPEUTICS, INC., priority 2018, published 2021)
